The values that follow come from patent publication US12371428B2 (Exelixis, Inc., priority 2019, dated 2025).

Assay type in all cases: cell-based
Assay [1] has as its target Met (phospho-Met, HGF-stimulated PC-3 prostate cancer cells) (Homo sapiens (Human), UniProt P08581). Kind of assay: Met autophosphorylation ELISA in PC-3 cells (Example F). Conditions: cellular activity; Met autophosphorylation ELISA in PC-3 cells; read-out: c-Met IC50. The gist of the method:
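IC50 values derive from a 4-parameter logistic fit of phospho-Met (panTyr) sandwich ELISA signals in PC-3 lysates, scaled between DMSO and reference-inhibitor wells. Cells, starved 3 h in serum-free medium, had 1 h compound exposure (8 doses, 0.3% DMSO) before 10 min stimulation with 100 ng/mL HGF.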

The target of assay [2] is AXL (phospho-AXL, Gas6-stimulated A-172 glioblastoma cells) (Homo sapiens (Human), UniProt P30530). Kind of assay: AXL autophosphorylation ELISA in A-172 cells (Example E). Particulars: cellular activity; AXL autophosphorylation ELISA in A-172 cells; read-out: Axl IC50. In outline: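 Phospho-AXL in lysates was quantified by ELISA, normalised to DMSO (100%) and reference inhibitor (0%) controls. IC50 by 4-parameter logistic fit.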
Sequence of AXL (phospho-AXL, Gas6-stimulated A-172 glioblastoma cells) (P30530 26-894): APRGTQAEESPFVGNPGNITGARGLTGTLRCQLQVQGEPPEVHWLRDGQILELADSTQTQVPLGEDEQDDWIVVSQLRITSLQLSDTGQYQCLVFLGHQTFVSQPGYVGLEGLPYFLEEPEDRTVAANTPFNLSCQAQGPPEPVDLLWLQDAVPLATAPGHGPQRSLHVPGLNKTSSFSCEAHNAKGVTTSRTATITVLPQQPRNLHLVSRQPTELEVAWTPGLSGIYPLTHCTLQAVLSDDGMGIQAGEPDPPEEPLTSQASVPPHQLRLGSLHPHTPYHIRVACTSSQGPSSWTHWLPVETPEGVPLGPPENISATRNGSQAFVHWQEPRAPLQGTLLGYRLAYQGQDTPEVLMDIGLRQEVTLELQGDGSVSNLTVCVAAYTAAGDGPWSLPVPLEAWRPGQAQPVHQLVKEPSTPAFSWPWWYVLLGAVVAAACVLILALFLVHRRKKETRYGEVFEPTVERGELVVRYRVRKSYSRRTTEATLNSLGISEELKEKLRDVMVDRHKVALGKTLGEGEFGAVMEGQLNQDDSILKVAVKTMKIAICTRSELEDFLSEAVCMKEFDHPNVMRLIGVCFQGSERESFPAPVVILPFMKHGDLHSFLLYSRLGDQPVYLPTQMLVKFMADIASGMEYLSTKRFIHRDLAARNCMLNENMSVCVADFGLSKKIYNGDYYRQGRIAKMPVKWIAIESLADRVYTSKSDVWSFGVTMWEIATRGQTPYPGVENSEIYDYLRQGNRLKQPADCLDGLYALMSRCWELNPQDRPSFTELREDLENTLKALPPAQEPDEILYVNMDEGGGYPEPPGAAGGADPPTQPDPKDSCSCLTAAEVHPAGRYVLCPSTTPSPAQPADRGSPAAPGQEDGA
On the technique in general: An ELISA detects its analyte on a solid surface through an enzyme-linked reagent.

Assay [3] has as its target KDR (phospho-KDR, VEGF165-stimulated HUVEC cells) (Homo sapiens (Human), UniProt P35968). The experiment in a line: KDR autophosphorylation ELISA in HUVEC cells (Example G). Particulars: cellular activity; KDR autophosphorylation ELISA in HUVEC cells. In outline: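 Cells seeded, grown 24 h at 37 °C, starved 24 h serum-free; cpd 8-pt curve, 0.3% DMSO, 1 h; VEGF165 100 ng/mL, 5 min; cold PBS wash, lysis with orthovanadate and protease/phosphatase inhibitors; pKDR ELISA; IC50 by 4-parameter logistic regression.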

One may read the IC50 as the point on the concentration scale where inhibition reaches its midpoint.

Where a name gives a salt, the structure may show the parent alone. A value given as a limit tells only on which side of the number the result lay.

Sequence of KDR (phospho-KDR, VEGF165-stimulated HUVEC cells) (P35968 20-1356): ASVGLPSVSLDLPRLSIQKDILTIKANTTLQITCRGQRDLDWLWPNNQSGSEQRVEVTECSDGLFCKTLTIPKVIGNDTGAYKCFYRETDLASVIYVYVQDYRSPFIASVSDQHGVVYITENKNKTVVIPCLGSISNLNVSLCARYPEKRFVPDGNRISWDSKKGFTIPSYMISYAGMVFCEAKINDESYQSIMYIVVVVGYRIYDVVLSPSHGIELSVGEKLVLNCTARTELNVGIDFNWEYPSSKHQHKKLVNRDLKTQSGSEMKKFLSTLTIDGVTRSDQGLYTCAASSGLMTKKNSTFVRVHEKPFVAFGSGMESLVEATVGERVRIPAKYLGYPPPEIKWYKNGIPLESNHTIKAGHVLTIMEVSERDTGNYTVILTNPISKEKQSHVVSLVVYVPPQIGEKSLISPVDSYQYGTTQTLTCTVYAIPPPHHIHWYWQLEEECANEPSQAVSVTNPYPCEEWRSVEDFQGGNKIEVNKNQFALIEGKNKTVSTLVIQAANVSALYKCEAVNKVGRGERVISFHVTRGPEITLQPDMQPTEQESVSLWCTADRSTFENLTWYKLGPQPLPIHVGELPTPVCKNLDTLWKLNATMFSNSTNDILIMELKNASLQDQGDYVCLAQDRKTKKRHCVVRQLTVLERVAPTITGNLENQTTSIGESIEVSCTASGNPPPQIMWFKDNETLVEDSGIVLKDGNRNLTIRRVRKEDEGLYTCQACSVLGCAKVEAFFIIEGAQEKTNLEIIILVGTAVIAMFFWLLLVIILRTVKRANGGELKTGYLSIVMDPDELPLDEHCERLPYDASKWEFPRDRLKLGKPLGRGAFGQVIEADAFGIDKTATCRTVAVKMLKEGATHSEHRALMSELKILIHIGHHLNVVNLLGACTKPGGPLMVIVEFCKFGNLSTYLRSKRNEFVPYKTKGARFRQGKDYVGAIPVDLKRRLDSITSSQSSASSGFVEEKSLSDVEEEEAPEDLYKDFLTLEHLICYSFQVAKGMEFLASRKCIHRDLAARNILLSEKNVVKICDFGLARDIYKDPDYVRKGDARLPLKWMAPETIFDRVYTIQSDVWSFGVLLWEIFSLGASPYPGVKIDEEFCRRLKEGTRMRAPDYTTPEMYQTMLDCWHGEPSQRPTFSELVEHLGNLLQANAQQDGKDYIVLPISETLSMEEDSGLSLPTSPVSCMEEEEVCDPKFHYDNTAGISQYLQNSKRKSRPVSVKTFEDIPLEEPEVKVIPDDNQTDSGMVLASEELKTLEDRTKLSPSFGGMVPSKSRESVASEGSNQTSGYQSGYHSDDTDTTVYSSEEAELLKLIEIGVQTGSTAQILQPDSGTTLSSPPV
Sequence of Met (phospho-Met, HGF-stimulated PC-3 prostate cancer cells) (P08581 25-1390): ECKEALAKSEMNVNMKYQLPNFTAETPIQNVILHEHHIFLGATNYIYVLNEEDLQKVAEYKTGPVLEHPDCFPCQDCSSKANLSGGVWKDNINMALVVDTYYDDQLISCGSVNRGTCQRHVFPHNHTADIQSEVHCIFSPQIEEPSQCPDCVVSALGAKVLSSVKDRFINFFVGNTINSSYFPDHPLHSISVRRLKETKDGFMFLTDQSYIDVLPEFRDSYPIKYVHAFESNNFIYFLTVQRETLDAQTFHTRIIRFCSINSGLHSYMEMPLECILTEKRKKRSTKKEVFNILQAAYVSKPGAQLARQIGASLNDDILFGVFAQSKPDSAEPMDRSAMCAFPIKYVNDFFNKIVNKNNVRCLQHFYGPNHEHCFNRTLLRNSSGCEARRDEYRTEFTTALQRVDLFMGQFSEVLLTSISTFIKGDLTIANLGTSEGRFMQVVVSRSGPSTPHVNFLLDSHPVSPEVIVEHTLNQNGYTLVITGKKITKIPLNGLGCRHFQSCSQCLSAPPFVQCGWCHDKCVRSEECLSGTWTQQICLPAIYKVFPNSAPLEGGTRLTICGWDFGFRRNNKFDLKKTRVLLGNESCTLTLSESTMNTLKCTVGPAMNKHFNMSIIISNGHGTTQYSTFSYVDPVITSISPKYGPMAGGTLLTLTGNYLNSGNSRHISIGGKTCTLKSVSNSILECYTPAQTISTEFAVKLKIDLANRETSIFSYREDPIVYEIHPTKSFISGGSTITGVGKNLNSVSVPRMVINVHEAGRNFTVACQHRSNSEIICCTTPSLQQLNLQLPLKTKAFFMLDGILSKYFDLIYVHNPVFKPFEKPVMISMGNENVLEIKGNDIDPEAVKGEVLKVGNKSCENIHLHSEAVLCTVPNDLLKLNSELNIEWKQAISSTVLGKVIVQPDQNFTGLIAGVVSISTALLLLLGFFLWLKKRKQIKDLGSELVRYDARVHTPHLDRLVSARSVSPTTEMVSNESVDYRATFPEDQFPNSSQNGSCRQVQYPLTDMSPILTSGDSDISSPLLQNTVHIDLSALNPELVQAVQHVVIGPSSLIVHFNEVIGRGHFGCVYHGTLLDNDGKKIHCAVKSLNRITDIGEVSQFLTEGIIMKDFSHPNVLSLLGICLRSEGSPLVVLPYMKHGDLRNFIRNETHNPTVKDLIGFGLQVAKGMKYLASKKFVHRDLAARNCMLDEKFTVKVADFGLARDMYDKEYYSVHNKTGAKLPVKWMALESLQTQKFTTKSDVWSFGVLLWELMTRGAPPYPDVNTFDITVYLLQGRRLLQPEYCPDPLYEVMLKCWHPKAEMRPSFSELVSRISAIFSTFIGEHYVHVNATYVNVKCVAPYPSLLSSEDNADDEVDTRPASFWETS

Turning to `Cc1ncc(C(=O)Nc2ccc(Oc3ccnc4cnccc34)c(F)c2)c(O)c1-c1ccc(F)cc1` [Compound 642, N-[3-fluoro-4-(1,7-naphthyridin-4-yloxy)phenyl]-5-(4-fluorophenyl)-4-hydroxy-6-methylpyridine-3-carboxamide], the IC50 in assay [1], in assay [2] and in assay [3] was below 100 nM throughout.

For the compound `CCn1cc(C(=O)Nc2ccc(Oc3ccnc4cc(OC)cnc34)c(F)c2)c(=O)c(-c2ccc(F)cc2)c1C` [Compound 164, 1-Ethyl-N-[3-fluoro-4-[(7-methoxy-1,5-naphthyridin-4-yl)oxy]phenyl]-5-(4-fluorophenyl)-6-methyl-4-oxopyridine-3-carboxamide], the IC50 was below 100 nM in assay [1] and above 300 nM in assay [3].

As for `Cc1ncc(C(=O)Nc2ccc(Oc3ccnc4cc(C(C)C)cnc34)c(F)c2)c(O)c1-c1ccc(F)cc1` [Compound 596, 5-(4-Fluorophenyl)-N-[3-fluoro-4-[(7-propan-2-yl-1,5-naphthyridin-4-yl)oxy]phenyl]-4-hydroxy-6-methylpyridine-3-carboxamide], the IC50 in assay [1] and in assay [3] was below 100 nM each time.

With `Cc1nc2c(Oc3ccc(NC(=O)c4cnc(C)c(-c5ccc(F)cc5)c4O)cc3)ccnc2cc1-c1cnn(C(F)F)c1` [Compound 617, N-[4-[[7-[1-(Difluoromethyl)pyrazol-4-yl]-6-methyl-1,5-naphthyridin-4-yl]oxy]phenyl]-5-(4-fluorophenyl)-4-hydroxy-6-methylpyridine-3-carboxamide hydrochloride], the IC50 in assay [1] and in assay [3] was below 100 nM throughout.

On to `CCc1nc2c(Oc3ccc(NC(=O)c4cn(C(C)C)c(C)c(-c5ccc(F)cc5)c4=O)cc3F)ccnc2cc1OC` [Compound 588, N-[4-[(6-Ethyl-7-methoxy-1,5-naphthyridin-4-yl)oxy]-3-fluorophenyl]-5-(4-fluorophenyl)-6-methyl-4-oxo-1-propan-2-ylpyridine-3-carboxamide], for which the IC50 in assay [1] is below 100 nM; in assay [3], above 300 nM.

For `Cc1ncc(C(=O)Nc2ccc(Oc3ccnc4cnc(Cl)cc34)c(F)c2)c(O)c1-c1ccc(F)cc1` [Compound 641, N-[4-[(6-chloro-1,7-naphthyridin-4-yl)oxy]-3-fluorophenyl]-5-(4-fluorophenyl)-4-hydroxy-6-methylpyridine-3-carboxamide], the IC50 in assay [1] and in assay [3] was below 100 nM in each case.

For the compound `COc1nc2c(Oc3ccc(NC(=O)c4cnc(C)c(-c5ccc(F)cc5)c4O)cc3F)ccnc2cc1Br` [Compound 130, N-[4-[(7-Bromo-6-methoxy-1,5-naphthyridin-4-yl)oxy]-3-fluorophenyl]-5-(4-fluorophenyl)-4-hydroxy-6-methylpyridine-3-carboxamide], the IC50 in assay [1] and in assay [3] was below 100 nM throughout.

Consider `COc1cnc2c(Oc3ccc(NC(=O)c4cnc(C)c(-c5ccc(F)cc5C)c4O)cc3F)ccnc2c1` [Compound 175, N-[3-Fluoro-4-[(7-methoxy-1,5-naphthyridin-4-yl)oxy]phenyl]-5-(4-fluoro-2-methylphenyl)-4-hydroxy-6-methylpyridine-3-carboxamide], for which the IC50 in assay [1] and in assay [3] was below 100 nM throughout.

Take `Cc1ncc(C(=O)Nc2ccc(Oc3ccnc4cc(C(C)C)cnc34)cc2)c(O)c1-c1ccc(F)cc1` [Compound 594, 5-(4-Fluorophenyl)-4-hydroxy-6-methyl-N-[4-[(7-propan-2-yl-1,5-naphthyridin-4-yl)oxy]phenyl]pyridine-3-carboxamide]: the IC50 in assay [1] and in assay [3] was below 100 nM each time.
